Values after ≈ are worked out from the molar mass of the structure shown. Where a SMILES comes first, the peptide text is derived from it.
Columns and labels:
Escherichia coli [1] = test: Antibacterial activity against Escherichia coli ATCC 35218; type: functional, organism-based
L929 = test: Cytotoxicity against mouse L929 cells up to 200 ug/mL after 5 days by MTT assay; type: cell-based; details: l929, 120 h
Candida albicans [2] = test: Antifungal activity against Candida albicans ATCC 10231 after 15 to 18 hrs under aerobic condition by modified broth microdilution method; type: functional
Klebsiella pneumoniae [3] = test: Antibacterial activity against Klebsiella pneumoniae ATCC 700603 after 15 to 18 hrs under aerobic condition by modified broth microdilution method; type: functional
Staphylococcus aureus [4] = test: Antibacterial activity against methicillin-resistant Staphylococcus aureus DSM 50128509 after 15 to 18 hrs under aerobic condition by modified broth microdilution method; type: functional
Candida albicans [5] = test: Antifungal activity against Candida albicans ATCC 10231; type: functional, organism-based
Pseudomonas aeruginosa = test: Antibacterial activity against Pseudomonas aeruginosa ATCC 9027 after 15 to 18 hrs under aerobic condition by modified broth microdilution method; type: functional
Escherichia coli [6] = test: Antibacterial activity against Escherichia coli ATCC 35218 after 15 to 18 hrs under aerobic condition by modified broth microdilution method; type: functional
[7] = test system: Staphylococcus epidermidis; test: Antibacterial activity against methicillin-resistant Staphylococcus epidermidis DSM 50160384 after 15 to 18 hrs under aerobic condition by modified broth microdilution method; type: functional
[8] = test system: Staphylococcus epidermidis; test: Antibacterial activity against methicillin-resistant Staphylococcus epidermidis DSM 50160384; type: functional, organism-based
Klebsiella pneumoniae [9] = test: Antibacterial activity against Klebsiella pneumoniae ATCC 700603; type: functional, organism-based
Staphylococcus aureus [10] = test: Antibacterial activity against methicillin-resistant Staphylococcus aureus DSM 50128509; type: functional, organism-based

| SMILES | IC50 (Escherichia coli [1]) | Activity (L929) | MIC (Candida albicans [2]) | MIC (Klebsiella pneumoniae [3]) | MIC (Staphylococcus aureus [4]) | IC50 (Candida albicans [5]) | MIC (Pseudomonas aeruginosa) | MIC (Escherichia coli [6]) | MIC [7] | IC50 [8] | IC50 (Klebsiella pneumoniae [9]) | IC50 (Staphylococcus aureus [10]) |
| --- | --- | --- | --- | --- | --- | --- | --- | --- | --- | --- | --- | --- |
| CN[C@@H]1[C@H](O[C@H]2[C@H](O[C@H]3[C@H](O)[C@@H](O)[C@H](N=C(N)N)[C@@H](O)[C@@H]3N=C(N)N)O[C@@H](C)[C@]2(O)C=O)O[C@@H](CO)[C@H](O)[C@H]1O [STREPTOMYCIN] | 0.73 µg/mL (≈ 1.26 µM) | – | – | – | – | – | – | – | – | – | – | – |
| COC(=O)[C@H](Cc1c[nH]cn1)NC(=O)[C@@H](N)Cc1c[nH]c2ccccc12 (H-Trp-His-OMe) | 18.5 µg/mL (≈ 52.1 µM) | Non-toxic | 200 µg/mL (≈ 563 µM) | > 200 µg/mL | > 200 µg/mL | 20.6 µg/mL (≈ 58 µM) | > 200 µg/mL | 200 µg/mL (≈ 563 µM) | > 200 µg/mL | – | – | – |
| CC(C)(C)OC(=O)N[C@@H](Cc1c[nH]c(C2CCC2)n1)C(=O)N[C@@H](CCCNC(=N)N)C(=O)NCc1ccccc1 | – | Non-toxic | > 200 µg/mL | 200 µg/mL (≈ 361 µM) | > 200 µg/mL | – | > 200 µg/mL | > 200 µg/mL | 200 µg/mL (≈ 361 µM) | 19.3 µg/mL (≈ 34.8 µM) | 20.8 µg/mL (≈ 37.5 µM) | – |
| COC(=O)[C@H](CCCNC(=N)N)NC(=O)[C@@H](N)Cc1c[nH]c(C(C)C)n1 | 9.98 µg/mL (≈ 27.2 µM) | Non-toxic | > 200 µg/mL | > 200 µg/mL | 50 µg/mL (≈ 136 µM) | – | > 200 µg/mL | 200 µg/mL (≈ 544 µM) | 50 µg/mL (≈ 136 µM) | 5.42 µg/mL (≈ 14.8 µM) | – | 4.82 µg/mL (≈ 13.1 µM) |
| COC(=O)[C@H](Cc1c[nH]c(C(C)C)n1)NC(=O)[C@@H](N)Cc1c[nH]c2ccccc12 | 12.2 µg/mL (≈ 30.7 µM) | Non-toxic | 200 µg/mL (≈ 503 µM) | > 200 µg/mL | 200 µg/mL (≈ 503 µM) | 15.6 µg/mL (≈ 39.3 µM) | > 200 µg/mL | 200 µg/mL (≈ 503 µM) | > 200 µg/mL | – | – | 13.1 µg/mL (≈ 33 µM) |
| N[C@@H](Cc1c[nH]c2ccccc12)C(=O)N[C@@H](Cc1c[nH]c(C2CCC2)n1)C(=O)NCc1ccccc1 | 22.5 µg/mL (≈ 46.4 µM) | Non-toxic | 100 µg/mL (≈ 206 µM) | > 200 µg/mL | 100 µg/mL (≈ 206 µM) | 10.3 µg/mL (≈ 21.3 µM) | > 200 µg/mL | 200 µg/mL (≈ 413 µM) | 50 µg/mL (≈ 103 µM) | 8.51 µg/mL (≈ 17.6 µM) | – | 27.1 µg/mL (≈ 55.9 µM) |
| COC(=O)[C@H](Cc1c[nH]c(C2CCC2)n1)NC(=O)[C@@H](N)Cc1c[nH]c2ccccc12 | 9.48 µg/mL (≈ 23.2 µM) | Non-toxic | 200 µg/mL (≈ 488 µM) | > 200 µg/mL | 200 µg/mL (≈ 488 µM) | 18.2 µg/mL (≈ 44.6 µM) | > 200 µg/mL | 200 µg/mL (≈ 488 µM) | 200 µg/mL (≈ 488 µM) | 14.5 µg/mL (≈ 35.5 µM) | – | 9.54 µg/mL (≈ 23.3 µM) |
| CC(C)(C)OC(=O)N[C@@H](Cc1c[nH]c(C(C)(C)C)n1)C(=O)N[C@@H](CCCNC(=N)N)C(=O)NCc1ccccc1 | 12 µg/mL (≈ 21.6 µM) | Non-toxic | 200 µg/mL (≈ 359 µM) | > 200 µg/mL | 200 µg/mL (≈ 359 µM) | 33.1 µg/mL (≈ 59.5 µM) | > 200 µg/mL | 100 µg/mL (≈ 180 µM) | > 200 µg/mL | – | – | 17.5 µg/mL (≈ 31.5 µM) |
| COC(=O)[C@H](Cc1c[nH]c(C2CCCCC2)n1)NC(=O)[C@H](Cc1c[nH]c2ccccc12)NC(=O)OC(C)(C)C | 20.9 µg/mL (≈ 38.8 µM) | Non-toxic | 200 µg/mL (≈ 372 µM) | > 200 µg/mL | 200 µg/mL (≈ 372 µM) | 17.7 µg/mL (≈ 32.9 µM) | > 200 µg/mL | 200 µg/mL (≈ 372 µM) | 50 µg/mL (≈ 93 µM) | 6.29 µg/mL (≈ 11.7 µM) | – | 14 µg/mL (≈ 26 µM) |
| COC(=O)[C@H](Cc1c[nH]c(C(C)(C)C)n1)NC(=O)[C@H](Cc1c[nH]c2ccccc12)NC(=O)OC(C)(C)C | 16.3 µg/mL (≈ 31.8 µM) | Non-toxic | > 200 µg/mL | > 200 µg/mL | 50 µg/mL (≈ 97.7 µM) | – | > 200 µg/mL | 200 µg/mL (≈ 391 µM) | 100 µg/mL (≈ 195 µM) | 8.12 µg/mL (≈ 15.9 µM) | – | 4.35 µg/mL (≈ 8.5 µM) |
| NC[C@@H]1O[C@H](O[C@H]2[C@@H](O)[C@H](O[C@@H]3[C@@H](O)[C@H](N)C[C@H](N)[C@H]3O[C@H]3O[C@H](CN)[C@@H](O)[C@H](O)[C@H]3N)O[C@@H]2CO)[C@H](N)[C@@H](O)[C@@H]1O [FRAMYCETIN] | – | – | – | – | – | – | – | – | – | – | 0.6 µg/mL (≈ 0.976 µM) | – |
| COC(=O)[C@H](Cc1c[nH]c(C2CCCCC2)n1)NC(=O)[C@@H](N)Cc1c[nH]c2ccccc12 | – | Non-toxic | > 200 µg/mL | 200 µg/mL (≈ 457 µM) | 100 µg/mL (≈ 229 µM) | – | > 200 µg/mL | > 200 µg/mL | 200 µg/mL (≈ 457 µM) | 12.5 µg/mL (≈ 28.5 µM) | 29.4 µg/mL (≈ 67.1 µM) | 10.1 µg/mL (≈ 23.1 µM) |
| N[C@@H](Cc1c[nH]c2ccccc12)C(=O)N[C@@H](Cc1c[nH]c(C2CCCCC2)n1)C(=O)NCc1ccccc1 | – | Non-toxic | 100 µg/mL (≈ 195 µM) | 50 µg/mL (≈ 97.5 µM) | 10 µg/mL (≈ 19.5 µM) | 8.41 µg/mL (≈ 16.4 µM) | > 200 µg/mL | > 200 µg/mL | 50 µg/mL (≈ 97.5 µM) | 7.54 µg/mL (≈ 14.7 µM) | 17.4 µg/mL (≈ 33.9 µM) | 4.8 µg/mL (≈ 9.36 µM) |
| COC(=O)[C@H](Cc1c[nH]c(C23CC4CC(CC(C4)C2)C3)n1)NC(=O)[C@H](Cc1c[nH]c2ccccc12)NC(=O)OC(C)(C)C | 6.59 µg/mL (≈ 11.2 µM) | Non-toxic | 200 µg/mL (≈ 339 µM) | > 200 µg/mL | 20 µg/mL (≈ 33.9 µM) | 26.6 µg/mL (≈ 45.1 µM) | > 200 µg/mL | 100 µg/mL (≈ 170 µM) | 50 µg/mL (≈ 84.8 µM) | 4.03 µg/mL (≈ 6.83 µM) | – | 1.69 µg/mL (≈ 2.87 µM) |
| COC(=O)[C@H](Cc1c[nH]c(C2CCC2)n1)NC(=O)[C@H](Cc1c[nH]c2ccccc12)NC(=O)OC(C)(C)C | 24.6 µg/mL (≈ 48.3 µM) | Non-toxic | > 200 µg/mL | > 200 µg/mL | 100 µg/mL (≈ 196 µM) | – | > 200 µg/mL | 200 µg/mL (≈ 392 µM) | 100 µg/mL (≈ 196 µM) | 5.44 µg/mL (≈ 10.7 µM) | – | 2.95 µg/mL (≈ 5.79 µM) |
| COC(=O)[C@H](CCCNC(=N)N)NC(=O)[C@@H](N)Cc1c[nH]c(C2CCC2)n1 | 15.3 µg/mL (≈ 40.3 µM) | Non-toxic | 200 µg/mL (≈ 527 µM) | > 200 µg/mL | 200 µg/mL (≈ 527 µM) | 14 µg/mL (≈ 36.8 µM) | > 200 µg/mL | 200 µg/mL (≈ 527 µM) | 100 µg/mL (≈ 264 µM) | 6.66 µg/mL (≈ 17.6 µM) | – | 9.28 µg/mL (≈ 24.5 µM) |
| COC(=O)[C@H](Cc1c[nH]c(C23CC4CC(CC(C4)C2)C3)n1)NC(=O)[C@@H](N)Cc1c[nH]c2ccccc12 | – | Non-toxic | > 200 µg/mL | 200 µg/mL (≈ 408 µM) | 20 µg/mL (≈ 40.8 µM) | – | > 200 µg/mL | > 200 µg/mL | 20 µg/mL (≈ 40.8 µM) | 4.59 µg/mL (≈ 9.37 µM) | 24.4 µg/mL (≈ 49.9 µM) | 2.3 µg/mL (≈ 4.7 µM) |
| COC(=O)[C@H](Cc1c[nH]c(C(C)(C)C)n1)NC(=O)[C@@H](N)Cc1c[nH]c2ccccc12 | 19 µg/mL (≈ 46.2 µM) | Non-toxic | > 200 µg/mL | > 200 µg/mL | 10 µg/mL (≈ 24.3 µM) | – | > 200 µg/mL | 200 µg/mL (≈ 486 µM) | 100 µg/mL (≈ 243 µM) | 6.73 µg/mL (≈ 16.4 µM) | – | 4.21 µg/mL (≈ 10.2 µM) |
| CC(C)(C)OC(=O)N[C@@H](Cc1c[nH]c2ccccc12)C(=O)N[C@@H](Cc1c[nH]c(C23CC4CC(CC(C4)C2)C3)n1)C(=O)NCc1ccccc1 | – | Non-toxic | 200 µg/mL (≈ 301 µM) | 200 µg/mL (≈ 301 µM) | 100 µg/mL (≈ 150 µM) | 28.3 µg/mL (≈ 42.6 µM) | > 200 µg/mL | > 200 µg/mL | 200 µg/mL (≈ 301 µM) | 29.1 µg/mL (≈ 43.7 µM) | – | 7.59 µg/mL (≈ 11.4 µM) |

From ChEMBL document CHEMBL1154782, “Discovery of Trp-His and His-Arg analogues as new structural classes of short antimicrobial peptides” (J Med Chem, 2009)
